Data published in ChEMBL document CHEMBL4373723 (J Med Chem, 2019).
Bridge positions count the residues as written; N and C are the ends. Square brackets hold non-standard residues; d marks the D form. Peptide text beside a SMILES is read from it. I, II: the chains in the order shown. Phe(3,4-Cl2) = N[C@@H](Cc1ccc(Cl)c(Cl)c1)C(=O)O; Phe(2,4-Cl2) = N[C@@H](Cc1ccc(Cl)cc1Cl)C(=O)O; Phe(3-Cl) = N[C@@H](Cc1cccc(Cl)c1)C(=O)O; hPhe = N[C@@H](CCc1ccccc1)C(=O)O

Columns and labels:
Frizzled-7 [1] = target: T1, Frizzled-7 (Homo sapiens, UniProt O75084); assay type: cell-based; conditions: cho
Frizzled-7 [2] = target: T1, Frizzled-7; assay: biochemical; assay type: cell-based, CHO; conditions: read-out: Kd
Frizzled-7 [3] = target: T1, Frizzled-7; conditions: CHO
Description: Binding affinity to recombinant human Frizzled-7 (Gln33 to Leu185 residues)/human IgG1 chimeric protein expressed in CHO cells assessed as association rate constant by SPR assay

| SMILES | Kd (Frizzled-7 [1]) | Kd (Frizzled-7 [2]; cho) | Ka (Frizzled-7 [3]) | Kd (Frizzled-7 [2]) |
| --- | --- | --- | --- | --- |
| CSCC[C@H](NC(=O)[C@@H](CC1CCCC1)NC(=O)[C@H](Cc1cnc[nH]1)NC(=O)[C@H](CSSC[C@H](NC(=O)[C@H](Cc1c[nH]c2ccccc12)NC(=O)[C@H](Cc1ccccc1)NC(=O)[C@H](CCC(=O)O)NC(=O)[C@H](CC(C)C)NC(=O)[C@H](CC(=O)O)NC(=O)[C@H](CC(=O)O)NC(=O)[C@H](CO)NC(C)=O)C(=O)N[C@@H](Cc1cnc[nH]1)C(=O)N[C@H](CC1CCCC1)C(=O)N[C@@H](CCSC)C(=O)N[C@@H](Cc1ccc(O)cc1)C(N)=O)NC(=O)[C@H](Cc1c[nH]c2ccccc12)NC(=O)[C@H](Cc1ccccc1)NC(=O)[C@H](CCC(=O)O)NC(=O)[C@H](CC(C)C)NC(=O)[C@H](CC(=O)O)NC(=O)[C@H](CC(=O)O)NC(=O)[C@H](CO)NC(C)=O)C(=O)N[C@@H](Cc1ccc(O)cc1)C(N)=O | 44.1 ×10⁻³ /s | 14.5 nM | 30.4 ×10⁵ /M/s |  |
| CSCC[C@H](NC(=O)[C@@H](NC(=O)[C@H](Cc1cnc[nH]1)NC(=O)[C@H](CSSC[C@H](NC(=O)[C@H](Cc1c[nH]c2ccccc12)NC(=O)[C@H](CC(C)C)NC(=O)[C@H](CCC(=O)O)NC(=O)[C@H](CC(C)C)NC(=O)[C@H](CC(=O)O)NC(=O)[C@H](CC(=O)O)NC(=O)[C@H](CO)NC(C)=O)C(=O)N[C@@H](Cc1cnc[nH]1)C(=O)N[C@H](C(=O)N[C@@H](CCSC)C(=O)N[C@@H](Cc1ccc(O)cc1)C(N)=O)C(C)C)NC(=O)[C@H](Cc1c[nH]c2ccccc12)NC(=O)[C@H](CC(C)C)NC(=O)[C@H](CCC(=O)O)NC(=O)[C@H](CC(C)C)NC(=O)[C@H](CC(=O)O)NC(=O)[C@H](CC(=O)O)NC(=O)[C@H](CO)NC(C)=O)C(C)C)C(=O)N[C@@H](Cc1ccc(O)cc1)C(N)=O (I: Ac-SDDLELWCHVMY-NH2 / II: Ac-SDDLELWCHVMY-NH2; disulfide I:8-II:8) | 0.6 ×10⁻³ /s |  | 76.5 ×10⁵ /M/s | 0.079 nM |
| CSCC[C@H](NC(=O)[C@@H](CC1CCC1)NC(=O)[C@H](Cc1cnc[nH]1)NC(=O)[C@H](CSSC[C@H](NC(=O)[C@H](Cc1c[nH]c2ccccc12)NC(=O)[C@H](Cc1ccccc1)NC(=O)[C@H](CCC(=O)O)NC(=O)[C@H](CC(C)C)NC(=O)[C@H](CC(=O)O)NC(=O)[C@H](CC(=O)O)NC(=O)[C@H](CO)NC(C)=O)C(=O)N[C@@H](Cc1cnc[nH]1)C(=O)N[C@H](CC1CCC1)C(=O)N[C@@H](CCSC)C(=O)N[C@@H](Cc1ccc(O)cc1)C(N)=O)NC(=O)[C@H](Cc1c[nH]c2ccccc12)NC(=O)[C@H](Cc1ccccc1)NC(=O)[C@H](CCC(=O)O)NC(=O)[C@H](CC(C)C)NC(=O)[C@H](CC(=O)O)NC(=O)[C@H](CC(=O)O)NC(=O)[C@H](CO)NC(C)=O)C(=O)N[C@@H](Cc1ccc(O)cc1)C(N)=O | 2.13 ×10⁻³ /s | 0.4 nM | 53 ×10⁵ /M/s |  |
| CSCC[C@H](NC(=O)[C@@H](NC(=O)[C@H](Cc1cnc[nH]1)NC(=O)[C@H](CSSC[C@H](NC(=O)[C@H](Cc1c[nH]c2ccccc12)NC(=O)[C@H](Cc1ccccc1)NC(=O)[C@H](CCC(=O)O)NC(=O)[C@H](CC(C)C)NC(=O)[C@H](CC(=O)O)NC(=O)[C@H](CC(=O)O)NC(=O)[C@H](CO)NC(C)=O)C(=O)N[C@@H](Cc1cnc[nH]1)C(=O)N[C@H](C(=O)N[C@@H](CCSC)C(=O)N[C@@H](Cc1ccc(Cl)c(Cl)c1)C(N)=O)C(C)C)NC(=O)[C@H](Cc1c[nH]c2ccccc12)NC(=O)[C@H](Cc1ccccc1)NC(=O)[C@H](CCC(=O)O)NC(=O)[C@H](CC(C)C)NC(=O)[C@H](CC(=O)O)NC(=O)[C@H](CC(=O)O)NC(=O)[C@H](CO)NC(C)=O)C(C)C)C(=O)N[C@@H](Cc1ccc(Cl)c(Cl)c1)C(N)=O (I: Ac-SDDLEFWCHVM[Phe(3,4-Cl2)]-NH2 / II: Ac-SDDLEFWCHVM[Phe(3,4-Cl2)]-NH2; disulfide I:8-II:8) | 0.9 ×10⁻³ /s |  | 1.4 ×10⁵ /M/s | 6.4 nM |
| CSCC[C@H](NC(=O)[C@@H](NC(=O)[C@H](Cc1cnc[nH]1)NC(=O)[C@H](CSSC[C@H](NC(=O)[C@H](Cc1c[nH]c2ccccc12)NC(=O)[C@H](Cc1ccccc1)NC(=O)[C@H](CCC(=O)O)NC(=O)[C@H](CC(C)C)NC(=O)[C@H](CC(=O)O)NC(=O)[C@H](CC(=O)O)NC(=O)[C@H](CO)NC(C)=O)C(=O)N[C@@H](Cc1cnc[nH]1)C(=O)N[C@H](C(=O)N[C@@H](CCSC)C(=O)N[C@@H](Cc1ccc(Cl)cc1Cl)C(N)=O)C(C)C)NC(=O)[C@H](Cc1c[nH]c2ccccc12)NC(=O)[C@H](Cc1ccccc1)NC(=O)[C@H](CCC(=O)O)NC(=O)[C@H](CC(C)C)NC(=O)[C@H](CC(=O)O)NC(=O)[C@H](CC(=O)O)NC(=O)[C@H](CO)NC(C)=O)C(C)C)C(=O)N[C@@H](Cc1ccc(Cl)cc1Cl)C(N)=O (I: Ac-SDDLEFWCHVM[Phe(2,4-Cl2)]-NH2 / II: Ac-SDDLEFWCHVM[Phe(2,4-Cl2)]-NH2; disulfide I:8-II:8) | 2.89 ×10⁻³ /s |  | 1.29 ×10⁵ /M/s | 22.5 nM |
| CSCC[C@H](NC(=O)[C@@H](NC(=O)[C@H](Cc1cnc[nH]1)NC(=O)[C@H](CSSC[C@H](NC(=O)[C@H](Cc1c[nH]c2ccccc12)NC(=O)[C@H](Cc1ccccc1)NC(=O)[C@H](CCC(=O)O)NC(=O)[C@H](CCc1ccccc1)NC(=O)[C@H](CC(=O)O)NC(=O)[C@H](CC(=O)O)NC(=O)[C@H](CO)NC(C)=O)C(=O)N[C@@H](Cc1cnc[nH]1)C(=O)N[C@H](C(=O)N[C@@H](CCSC)C(=O)N[C@@H](Cc1ccc(O)cc1)C(N)=O)C(C)C)NC(=O)[C@H](Cc1c[nH]c2ccccc12)NC(=O)[C@H](Cc1ccccc1)NC(=O)[C@H](CCC(=O)O)NC(=O)[C@H](CCc1ccccc1)NC(=O)[C@H](CC(=O)O)NC(=O)[C@H](CC(=O)O)NC(=O)[C@H](CO)NC(C)=O)C(C)C)C(=O)N[C@@H](Cc1ccc(O)cc1)C(N)=O (I: Ac-SDD[hPhe]EFWCHVMY-NH2 / II: Ac-SDD[hPhe]EFWCHVMY-NH2; disulfide I:8-II:8) | 9.1 ×10⁻³ /s |  | 69.6 ×10⁵ /M/s | 1.4 nM |
| CC[C@H](C)[C@H](NC(=O)[C@H](Cc1cnc[nH]1)NC(=O)[C@H](CSSC[C@H](NC(=O)[C@H](Cc1c[nH]c2ccccc12)NC(=O)[C@H](Cc1cccc(Cl)c1)NC(=O)[C@H](CCC(=O)O)NC(=O)[C@H](CC(C)C)NC(=O)[C@H](CC(=O)O)NC(=O)[C@H](CC(=O)O)NC(=O)[C@H](CO)NC(C)=O)C(=O)N[C@@H](Cc1cnc[nH]1)C(=O)N[C@H](C(=O)N[C@@H](CCSC)C(=O)N[C@@H](Cc1ccc(O)cc1)C(N)=O)[C@@H](C)CC)NC(=O)[C@H](Cc1c[nH]c2ccccc12)NC(=O)[C@H](Cc1cccc(Cl)c1)NC(=O)[C@H](CCC(=O)O)NC(=O)[C@H](CC(C)C)NC(=O)[C@H](CC(=O)O)NC(=O)[C@H](CC(=O)O)NC(=O)[C@H](CO)NC(C)=O)C(=O)N[C@@H](CCSC)C(=O)N[C@@H](Cc1ccc(O)cc1)C(N)=O (I: Ac-SDDLE[Phe(3-Cl)]WCHIMY-NH2 / II: Ac-SDDLE[Phe(3-Cl)]WCHIMY-NH2; disulfide I:8-II:8) | 0.57 ×10⁻³ /s |  | 68.4 ×10⁵ /M/s | 0.083 nM |
